Measured values: patent US6645495B1, “Compositions of saponin adjuvants and excipients” (Antigenics, Inc., priority 1997, dated 2003)

Experiments:
[1] = in words; cited from earlier work
[2] = test system: sheep red blood cells; conditions: cited from earlier work; for concentration causing hemolysis of sheep red blood cells: substantially pure saponin
[3] = cited from earlier work
[4] = test system: C57BL/6 mice; conditions: antigen ovalbumin, cited from earlier work
[5] = earlier clinical trials: pain after injection of QS-21 in simple buffer; format: in vivo, humans; conditions: QS-21 in saline or PBS, some individuals
From the text: This pain, described by most individuals as a burning pain, may be a secondary reaction correlated with the lytic effect of the QS-21 adjuvant. Patient pain is likewise an objectionable property for a composition.

[6] = test system: Balb/c mice; assay: adjuvant potency: anti-OVA IgG2a response of immunized Balb/c mice (EIA); format: in vivo
Procedure: FIGS. 1A and 1B show the effect of Polysorbate 40, Polysorbate 60, Polysorbate 80, and methyl-β-cyclodextrin on the immune response of Balb/c mice to OVA plus various doses of QS-21. Female mice (10/group, 8-10 weeks of age at the first immunization) were immunized subcutaneously with 5 μg of OVA and the indicated dose of QS-21 in either PBS alone or in 2 mg/ml excipient in PBS. A booster immunization was given by the same route at week 2. Sera was collected at week 4 for EIA analysis of the anti-OVA response. Mice were analyzed for OVA-specific IgG2a by a standard EIA analysis.

[7] = aqueous shelf life of QS-21 solution at 4° C. (t90); format: physicochemical
Procedure: Product stability is another concern for QS-21 containing compositions. The shelf life of a vaccine product is typically defined by the extent of time to reach a defined and acceptable low level of degradation (such as, the time to 10% degradation, also known as t90). Most commercial vaccine products have a shelf life of at least 18 to 24 months when stored in the refrigerator at 4° C. Adjuvants, which are essential components of vaccines, therefore must also have equally long shelf lives. However, the shelf life of a 50 μg/ml solution of QS-21 at pH 7.0 at 4° C. is reached in about 3 months. The reason for the short shelf life is because the ester bond of QS-21 is increasingly labile at increasing pH and because monomers of QS-21, as opposed to micelles, are subject to hydrolysis. The need to stabilize compositions of QS-21 adjuvant is significant.
This is representative of a typical clinical vaccine formulation containing QS-21 adjuvant (which consists of QS-21 at a concentration of 50-200 μg/ml in a-physiological pH buffer (pH 7.0-7.5)). […] Some improvement in stability, however, can be achieved by an increased concentration of the QS-21 product. […] But a concentrated QS-21 solution is not necessarily a practical method of administering a low dose of adjuvant. For example, administration of 25 μg from a 500 μg/ml solution would require the syringe withdrawal of 0.05 ml of dose. Additionally, some improved stability can be achieved by the use of a lower pH, i.e., at pH 6.0. However, a pH substantially lower than the physiological pH range may not be tolerated well or be compatible with the antigen.

[8] = test system: New Zealand white rabbits; conditions: cited from earlier work

Row | pain after injection [5] | t90 (shelf life, time to 10% degradation) ([7]; 50 μg/ml QS-21, pH 6.0) [days] | t90 (shelf life, time to 10% degradation) ([7]; 50 μg/ml QS-21, pH 7.0, 4° C.) [days] | shelf life ([7]; 500 μg/ml QS-21, pH 7.0, 4° C.) [months] | t90 (shelf life, time to 10% degradation) ([7]; 500 μg/ml QS-21, pH 7.0, 4° C.) [days] | Substance | immune adjuvant activity [1] | concentration causing hemolysis of sheep red blood cells [2] [ng/mL] | critical micellar concentration in phosphate buffered saline [3] | critical micellar concentration in water [3] | threshold dose for antibody ([4]; in PBS (Kensil 1993)) [µg] | threshold dose for CTL ([4]; in PBS (Newman 1992)) [µg] | adjuvant activity (threshold dose) relative to PBS ([6]; 5 μg OVA s.c., boost week 2, sera week 4, 2 mg/ml Polysorbate 40, 60, 80 or methyl-β-cyclodextrin in PBS) | optimum adjuvant dose ([6]; QS-21 dose, OVA-specific IgG2a, Balb/c mice) [µg] | maximum level of antibody response ([6]; at optimum adjuvant dose, excipients versus PBS) | concentration at which hemolysis occurs ([2]; simple buffer such as saline or PBS (Kensil 1991)) [ng/mL] | creatine kinase (marker for muscle damage) ([8]; after injection with QS-21 in saline or PBS) | injection site histopathology ([8]; intramuscular QS-21/saline solutions, some animals (Kensil 1995)) | critical micellar concentration ([3]; in PBS (Soltysik 1995))
1 | – | – | – | – | – | QS-18 | having immune adjuvant activity | ≥ 25000 | ~0.02 % (w/v) | approximately 0.04 % (w/v) | – | – | – | – | – | – | – | – | –
2 | immediate, transient pain | 679 | 94 | 23.9 | 717 | QS-21 | having immune adjuvant activity | ≥ 25000 | ~0.02 % (w/v) | approximately 0.03 % (w/v) | 2.5 | 2.5 | active in all excipients within two fold of the threshold value determined in PBS | ≥ 10 | same maximum level of antibody response was reached | 5000 to 7000 | increased | mild to moderate fibroblast damage or necrosis | approximately 50 μg/ml
3 | – | – | – | – | – | QS-17 | having immune adjuvant activity | ≥ 25000 | ~0.03 % (w/v) | approximately 0.06 % (w/v) | – | – | – | – | – | – | – | – | –
